Columns and labels:
[1] = Cytotoxicity against human HL60 cells assessed as inhibition of cell growth at 100 uM after 72 hrs by MTT assay; format: functional; settings: HL-60, 72 h, read-out: GI
[2] = Cytotoxicity against human HL60 cells assessed as reduction in cell viability after 72 hrs by MTT assay; format: functional, cell-based; settings: HL-60, 72 h
HEK293 = assay: Cytotoxicity against human HEK293 cells assessed as reduction in cell viability after 72 hrs by MTT assay; format: cell-based; settings: HEK293, 72 h
[3] = biological target: T1, Apoptosis regulator Bcl-2 (Homo sapiens, UniProt P10415); assay: Inhibition of Bcl-2 (unknown origin) using FAM-Bid peptide as substrate at 50 uM by fluorescence polarization-based assay
Bcl-2-like protein 1 [4] = biological target: T2, Bcl-2-like protein 1 (Homo sapiens, UniProt Q07817); assay: Inhibition of Bcl-XL (unknown origin) using FAM-Bid peptide as substrate at 50 uM by fluorescence polarization-based assay
Bcl-2-like protein 1 [5] = biological target: T2, Bcl-2-like protein 1; assay: Inhibition of Bcl-XL (unknown origin) using FAM-Bid peptide as substrate by fluorescence polarization-based assay
[6] = biological target: T1, Apoptosis regulator Bcl-2; assay: Inhibition of Bcl-2 (unknown origin) using FAM-Bid peptide as substrate by fluorescence polarization-based assay

T1 sequence (P10415 whole entry): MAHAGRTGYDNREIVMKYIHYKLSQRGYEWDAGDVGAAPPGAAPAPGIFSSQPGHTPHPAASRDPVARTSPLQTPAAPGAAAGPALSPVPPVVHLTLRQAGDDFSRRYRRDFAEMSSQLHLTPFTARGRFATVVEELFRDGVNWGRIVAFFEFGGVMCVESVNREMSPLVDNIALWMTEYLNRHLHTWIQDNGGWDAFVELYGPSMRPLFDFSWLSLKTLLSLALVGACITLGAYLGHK
T2 sequence (Q07817 whole entry): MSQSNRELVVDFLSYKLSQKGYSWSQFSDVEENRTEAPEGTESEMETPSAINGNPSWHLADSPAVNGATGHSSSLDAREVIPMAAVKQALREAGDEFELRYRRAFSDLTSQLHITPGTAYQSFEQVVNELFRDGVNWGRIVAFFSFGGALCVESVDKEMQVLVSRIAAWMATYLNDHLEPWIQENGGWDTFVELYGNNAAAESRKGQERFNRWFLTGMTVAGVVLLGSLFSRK

Compound	inhibition of growth at 100 µM [1] [%]	IC50 [2] [µM]	IC50 (HEK293) [µM]	inhibition [3] [%]	inhibition (Bcl-2-like protein 1 [4]) [%]	Ki (Bcl-2-like protein 1 [5]) [µM]	Ki [6] [µM]
COc1cc(O)c2c(=O)cc(-c3cc(O)c(O)cc3Cc3ccccc3Cl)oc2c1	85.8	20.5	–	–	–	–	–
O=c1cc(-c2cc(O)c(O)c(Cc3ccccc3)c2)oc2cc(O)cc(O)c12	78	44	–	–	–	–	–
Cc1ccc(Cc2cc(-c3cc(=O)c4c(O)cc(O)cc4o3)cc(O)c2O)cc1	49.1	100	–	–	–	–	–
Cc1cccc(Cc2cc(-c3cc(=O)c4c(O)cc(O)cc4o3)cc(O)c2O)c1	71.9	20.9	–	–	–	–	–
O=c1cc(-c2cc(O)c(O)c(Cc3ccc(Cl)cc3)c2)oc2cc(O)cc(O)c12	48.6	> 100	–	–	–	–	–
O=c1cc(-c2cc(O)c(O)cc2Cc2cccc(Cl)c2)oc2cc(O)cc(O)c12	65.2	64.4	–	–	–	–	–
Cc1cc2c(C(C)C)c(O)c(O)c(C=O)c2c(O)c1-c1c(C)cc2c(C(C)C)c(O)c(O)c(C=O)c2c1O [GOSSYPOL]	92	6.6	11	100	100	0.31	–
COc1cc(O)c2c(=O)cc(-c3cc(O)c(O)c(Cc4ccccc4C)c3)oc2c1	68.9	14.8	–	–	–	–	–
COc1cc(O)c2c(=O)cc(-c3cc(O)c(O)c(Cc4cccc(Cl)c4)c3)oc2c1	85.2	2.92	–	–	–	–	–
COc1cc(O)c2c(=O)cc(-c3cc(O)c(O)c(Cc4ccccc4Cl)c3)oc2c1	80.8	13.9	–	–	–	–	–
COc1cc(O)c2c(=O)cc(-c3cc(O)c(O)c(Cc4ccccc4)c3)oc2c1	37.5	> 100	–	–	–	–	–
COc1cc(O)c2c(=O)cc(-c3cc(O)c(O)cc3Cc3cccc(C)c3)oc2c1	86.1	9.97	74.7	–	–	–	–
COc1cc(O)c2c(=O)cc(-c3cc(O)c(O)cc3Cc3ccccc3C)oc2c1	90.2	14.9	–	–	–	–	–
COc1cc(O)c2c(=O)cc(-c3cc(O)c(O)cc3Cc3ccc(Cl)cc3)oc2c1	92.1	11.7	–	–	–	–	–
O=c1cc(-c2cc(O)c(O)c(Cc3cccc(Cl)c3)c2)oc2cc(O)cc(O)c12	76.4	28.8	–	–	–	–	–
O=c1cc(-c2cc(O)c(O)cc2Cc2ccc(Cl)cc2)oc2cc(O)cc(O)c12	100	7.05	–	–	–	–	–
Cc1ccc(Cc2cc(O)c(O)cc2-c2cc(=O)c3c(O)cc(O)cc3o2)cc1	19.9	> 100	–	–	–	–	–
O=c1cc(-c2cc(O)c(O)c(Cc3ccccc3Cl)c2)oc2cc(O)cc(O)c12	30.6	> 100	–	–	–	–	–
COc1cc(O)c2c(=O)cc(-c3cc(O)c(O)cc3Cc3ccc(C)cc3)oc2c1	96.4	10.9	–	–	–	–	–
O=c1cc(-c2cc(O)c(O)cc2Cc2ccccc2Cl)oc2cc(O)cc(O)c12	73.4	41.8	–	–	–	–	–
Cc1ccccc1Cc1cc(-c2cc(=O)c3c(O)cc(O)cc3o2)cc(O)c1O	31.5	> 100	–	–	–	–	–
COc1cc(O)c2c(=O)cc(-c3cc(O)c(O)c(Cc4cccc(C)c4)c3)oc2c1	55	63	–	–	–	–	–
COc1cc(O)c2c(=O)cc(-c3cc(O)c(O)cc3Cc3ccccc3)oc2c1	82	14.9	–	100	100	2.5	1.3
COc1cc(O)c2c(=O)cc(-c3cc(O)c(O)cc3Cc3cccc(Cl)c3)oc2c1	85.5	10.3	–	–	–	–	–
O=c1cc(-c2ccc(O)c(O)c2)oc2cc(O)cc(O)c12 [LUTEOLIN]	44	> 100	–	46	49	–	–
O=c1cc(-c2cc(O)c(O)cc2Cc2ccccc2)oc2cc(O)cc(O)c12	80	35.9	90.7	96	70	8.4	4.6
